Measured values as given in article PMC5349880, “P-glycoprotein-mediated chemoresistance is reversed by carbonic anhydrase XII inhibitors” (Oncotarget, 2016).

Columns and labels:
HT29/DX cells = test: Cell viability (neutral red); type: cell-based, human
SaOS/DX cells = test: Cell viability (neutral red); type: cell-based, human
TUBO cells = test: Cell viability (neutral red); type: cell-based, murine
A549 cells = test: Cell viability (neutral red); type: cell-based, human
HT29 cells = test: Cell viability (neutral red); type: cell-based, human; details: doxorubicin alone 72 h, IC50 ratio vs doxorubicin + tariquidar 25 nM
A549/DX cells = test: Cell viability (neutral red); type: cell-based, human
T74D cells = test: Cell viability (neutral red); type: cell-based, human
[1] = Hematochemical parameters of tumor-bearing animals
SaOS cells = test: Cell viability (neutral red); type: cell-based, human; details: doxorubicin alone 72 h, IC50 ratio vs doxorubicin + tariquidar 25 nM
SKBR3 cells = test: Cell viability (neutral red); type: cell-based, human; details: doxorubicin alone 72 h, IC50 ratio vs doxorubicin + tariquidar 25 nM
U2OS/DX cells = test: Cell viability (neutral red); type: cell-based, human
MCF7 cells = test: Cell viability (neutral red); type: cell-based, human; details: doxorubicin alone 72 h, IC50 ratio vs doxorubicin + tariquidar 25 nM
MDA-MB-231 cells = test: Cell viability (neutral red); type: cell-based, human
U2OS cells = test: Cell viability (neutral red); type: cell-based, human; details: doxorubicin alone 72 h, IC50 ratio vs doxorubicin + tariquidar 25 nM
JC cells [2] = test: Cell viability (neutral red); type: cell-based, murine
[3] = test system: CCD-Co-18 cells, BEAS-2B cells, MCF10A cells, fibroblasts; test: Cell viability (neutral red) of not-transformed cells; type: cell-based, human; details: 5 nM, 72 h; no detectable CAXII
From the text: Supplementary Figure S4: Effects of compounds 1, 2 and 4 on not-transformed cells. (A) Not-transformed human epithelial colon CCD-Co-18 cells, epithelial lung BEAS-2B cells, epithelial breast MCF10A cells, fibroblasts (fibro) were lysed and immunoblotted for CAXII and CAIX. A549/DX cells were used as control of CAXII- and CAIX-positive cells. β-tubulin level was used as control of equal protein loading. The figure is representative of one out of three experiments with similar results. (B) Cells were grown for 72 h in fresh medium (–), or in medium containing 5 nM compounds 1, 2 and 4, then stained with neutral red dye. The absorbance of viable cells was measured spectrophotometrically. Data are presented as means ± SD (n = 4).

JC cells [4] = test: In vivo tumor growth, JC breast tumor model; details: for reduction in tumor volume at day 18: co-administered with 5 mg/kg doxorubicin i.v.
Protocol: Data are presented as means ± SD.
Tumor growth was measured daily by caliper and calculated according to the equation (L × W^2)/2, where L = tumor length, W = tumor width.

[5] = Liver microsome metabolic stability (mouse); type: in vitro ADME; details: mouse liver microsomes; read-out: mouse liver microsome stability t1/2
Protocol: (§1) Plasma stability (mouse) and liver microsome metabolic stability (mouse) were measured by the Biopharmacy Laboratory, Shanghai Institute of Materia Medica, Chinese Academy of Sciences.

[6] = test system: ca12 KO HT29/DX, A549/DX, MDA-MB-231 and U2OS/DX cells; test: Intracellular doxorubicin accumulation in ca12 knocked-out cells; type: cell-based, human
Protocol: Data are presented as means ± SD (n = 4). […] The absorbance of viable cells was measured spectrophotometrically. Data are presented as means ± SD (n = 4).
Doxorubicin content was measured fluorimetrically as detailed previously by us. […] Cells were washed twice with PBS, detached with trypsin and sonicated. The intracellular drug content was measured by liquid scintillation. The results were expressed as nmol drug/mg cell proteins, according to titration curves previously set.
5 × 10^5 cells were transduced with 1 μg RNA vector (CRISPR pCas guide vector) ca12 or 1 μg not-targeting vector, mixed with 1 μg donor DNA vector (Origene, Rockville, MD), following the manufacturer's instructions. Stable KO cells were selected in complete medium containing 1 μg/ml puromycin for three weeks. Knockout efficacy was evaluated by immunoblotting, as reported above.

Plasma stability (mouse) = type: in vitro ADME; details: read-out: mouse plasma stability t1/2 (converted)
Protocol: as §1

Pgp = Pgp ATPase activity on Pgp-rich vesicles; type: cell-based; details: cells grown 24 h with 5 nM compound
Protocol: Pancadherin level was used as control of equal protein loading. no Ab: A549/DX sample immunoprecipitated without antibody. […] Data are presented as means ± SD (n = 3).
The assay was performed on Pgp-enriched membrane vesicles as detailed in [39]. Verapamil (10 μM) was added to the reaction mix to achieve a maximal activation of the Pgp ATPase activity. Results were expressed as nmol hydrolyzed phosphate (Pi)/min/mg proteins, according to the titration curve previously prepared.

[7] = C1 19 ng/kg intratumorally alone
[8] = C1 1900 ng/kg intratumorally alone
[9] = dox 5 mg/kg i.v. + C1 19 ng/kg intratumorally
[10] = dox 5 mg/kg i.v. + C1 1900 ng/kg intratumorally

COc1cccc2c1C(=O)c1c(O)c3c(c(O)c1C2=O)C[C@@](O)(C(=O)CO)C[C@@H]3O[C@H]1C[C@H](N)[C@H](O)[C@H](C)O1 [dox, doxorubicin, reference compound]
Rf dox (HT29/DX cells; HT29/DX, doxorubicin alone 72 h, IC50 ratio vs doxorubicin + tariquidar 25 nM): 4.26
Rf dox (SaOS/DX cells; SaOS/DX, doxorubicin alone 72 h, IC50 ratio vs doxorubicin + tariquidar 25 nM): 14.97
Rf dox (TUBO cells; TUBO, doxorubicin alone 72 h, IC50 ratio vs doxorubicin + tariquidar 25 nM): 4.23
Rf dox (A549 cells; A549, doxorubicin alone 72 h, IC50 ratio vs doxorubicin + tariquidar 25 nM): 1.31
Rf dox (HT29 cells): 1.39
Rf dox (A549/DX cells; A549/DX, doxorubicin alone 72 h, IC50 ratio vs doxorubicin + tariquidar 25 nM): 4.45
Rf dox (T74D cells; T74D, doxorubicin alone 72 h, IC50 ratio vs doxorubicin + tariquidar 25 nM): 0.98
ALT ([1]; doxorubicin 5 mg/kg i.v. alone): 37 ± 16 U/l
AST ([1]; doxorubicin 5 mg/kg i.v. alone): 288 ± 72 U/l
CPK ([1]; doxorubicin 5 mg/kg i.v. alone): 673 ± 172 U/l
Creatinine ([1]; doxorubicin 5 mg/kg i.v. alone): 0.029 ± 0.017 mg/L
LDH ([1]; doxorubicin 5 mg/kg i.v. alone): 6272 ± 812 U/l
Rf dox (SaOS cells): 1.43
Rf dox (SKBR3 cells): 2.19
Rf dox (U2OS/DX cells; U2OS/DX, doxorubicin alone 72 h, IC50 ratio vs doxorubicin + tariquidar 25 nM): 15.44
Rf dox (MCF7 cells): 1.32
Rf dox (MDA-MB-231 cells; MDA-MB-231, doxorubicin alone 72 h, IC50 ratio vs doxorubicin + tariquidar 25 nM): 4.55
Rf dox (U2OS cells): 1.05
Rf dox (JC cells [2]; JC, doxorubicin alone 72 h, IC50 ratio vs doxorubicin + tariquidar 25 nM): 7.61

NS(=O)(=O)OCCCNS(=O)(=O)[C@@H]1O[C@H](CO)[C@@H](O)[C@H](O)[C@H]1O [Compound 1]
reduction in viability for individual compounds (HT29/DX cells; HT29/DX cells, compound alone, 5 nM): ≤ 31 ± 6%
cytotoxic effect in not-transformed cells [3]: did not exert any cytotoxic effect
reduction in viability for individual compounds (SaOS/DX cells; SaOS/DX cells, compound alone, 5 nM): ≤ 32 ± 7%
reduction in viability for individual compounds (TUBO cells; TUBO cells, compound alone, 5 nM): ≤ 28 ± 7%
reduction in viability for individual compounds (A549 cells; A549 cells, compound alone, 5 nM): ≤ 28 ± 10%
reduction in tumor volume at day 18 (JC cells [4]; 19 ng/kg intratumorally): 21%
reduction in tumor volume at day 18 (JC cells [4]; 1900 ng/kg intratumorally): 47%
effect on tumor growth when used alone (JC cells [4]; 19 and 1900 ng/kg intratumorally, alone): no effect on tumor growth
reduction in viability for individual compounds (A549/DX cells; A549/DX cells, compound alone, 5 nM): ≤ 38 ± 7%
half-life [5]: 2.25 h
effect on doxorubicin intracellular accumulation [6]: lost the ability to further increase the doxorubicin intracellular accumulation
reduction in viability for individual compounds (T74D cells; T74D cells, compound alone, 5 nM): ≤ 33 ± 12%
ALT [1, 7]: 38 ± 12 U/l
AP [1, 7]: 91 ± 13 U/l
AST [1, 7]: 239 ± 72 U/l
CPK [1, 7]: 271 ± 84 U/l
Creatinine [1, 7]: 0.021 ± 0.011 mg/L
LDH [1, 7]: 6723 ± 1023 U/l
ALT [1, 8]: 45 ± 7 U/l
AP [1, 8]: 83 ± 11 U/l
AST [1, 8]: 261 ± 71 U/l
CPK [1, 8]: 312 ± 81 U/l
Creatinine [1, 8]: 0.033 ± 0.008 mg/L
LDH [1, 8]: 6729 ± 835 U/l
ALT [1, 9]: 44 ±11 U/l
AP [1, 9]: 79 ± 11 U/l
AST [1, 9]: 221 ± 71 U/l
CPK [1, 9]: 701 ± 129 U/l
Creatinine [1, 9]: 0.029 ± 0.011 mg/L
LDH [1, 9]: 6091 ± 836 U/l
ALT [1, 10]: 33 ± 15 U/l
AP [1, 10]: 83 ± 19 U/l
AST [1, 10]: 182 ± 44 U/l
CPK [1, 10]: 691 ± 103 U/l
Creatinine [1, 10]: 0.028 ± 0.008 mg/L
LDH [1, 10]: 6241 ± 936 U/l
reduction in viability for individual compounds (U2OS/DX cells; U2OS/DX cells, compound alone, 5 nM): ≤ 27 ± 8%
reduction in viability for individual compounds (MDA-MB-231 cells; MDA-MB-231 cells, compound alone, 5 nM): ≤ 36 ± 11%
half-life (Plasma stability (mouse)): 0.7 h
reduction of Pgp ATPase activity (Pgp): ≥ 1.47 fold
reduction in viability for individual compounds (JC cells [2]; JC cells, compound alone, 5 nM): ≤ 30 ± 10%
